We go through one compound from patent US20020132855A1, “Use of acetaminophen to prevent and treat arteriosclerosis” (priority 2000, published 2002).

The test system of assay [1] is fatty streaks in the blood vessels of rabbits. As to the kind of experiment: Fatty streak formation in aorta of cholesterol-fed rabbits. Type of assay: in vivo, New Zealand white rabbits. As to conditions: rabbits on 1% cholesterol chow, 12 weeks. From the text:
This investigation used an experimental system in which fatty streaks are induced in the blood vessels of rabbits by incorporation of 1 % cholesterol in their food. For further detail, see A. A. Taylor and C. V. Smith, Circulation 18 I-697 (1999). Similar experimental systems have been used previously for the evaluation of the efficacy of pharmaceutical compounds for treating, preventing, and regressing atherosclerosis. For example, see Daugherty, A., et al., “Probucol Attentuates the Development of Aortic Atherosclerosis in Cholesterol-Fed Rabbits,” 98(2) Br. J. Pharm. 612-18 (1989), which is incorporated by reference herein.
(§1) Twenty-three, six-week old male New Zealand white rabbits obtained from Myrtle's Rabbitry (Houston, Tex.) and weighing between about 1.8 kg and 2 kg were separated into two groups: Group 1 (experimental) having 12 rabbit/group and Group 2 (control) having 11 rabbits/group. At the beginning of the study, all rabbits were allowed water ad libitum and ate normal rabbit chow.
After a two week acclimatization period, all of the rabbits were then placed on normal rabbit chow supplemented with 1% cholesterol (ICN Biochemicals, Inc., Costa Mesa, Calif.), in order to induce fatty streak formation in their blood vessel walls. […] The cages were monitored daily in order to assure that each rabbit consumed the contents of his respective water bottle. […]

A further assay deals with oxysterols in LDL. As to the kind of experiment: Oxysterol concentrations in LDL isolated from cholesterol-fed rabbits. Type of assay: in vivo, New Zealand white rabbits. Here is the method: LDL Isolation: Plasma LDL was prepared by ultracentrifuation of a blood sample as disclosed in Havel, “The Distribution and Chemical Composition of Ultracentrifugally Separated Lpoproteins in Human Serum,” 34 JI. Clin. Inv. 1345 […], within a density cutoff of 1.020 g/ml to 1.055 g/ml and with the addition of 0.5 mg/ml ethylenediaminetetracetic acid (‘EDTA’) thereto. After adding a sample of this mixture to a semi-permable bag, the LDL was dialyzed therefrom against a vacuum-degassed 0.01 M Tris solution containing 0.15 M NaCl and 0.1 mg/ml EDTA under dark conditions and at 4° C. for 48 hours, followed by dialysis overnight using the same equipment but with a 0.01M phosphate buffer solution containing 0.15 M NaCl and no EDTA. The dialyzed LDL protein concentrations were then determined via the method set forth in Lowry, ‘Protein Measurement with the Folin Phenol Reagent,’ 226 J. Biol. Chem. 497-509 (1951).
as §1
After a two week acclimatization period, all of the rabbits were then placed on normal rabbit chow supplemented with 1% cholesterol (ICN Biochemicals, Inc., Costa Mesa, Calif.), in order to induce fatty streak formation in their blood vessel walls. Rabbits in Group 1 were switched from water to an acetaminophen solution for about a 40 mg/kgrabbit APAP dose. A 40 mg/kg dose of APAP in a 2.5 kg rabbit is equivalent to about a 2800 mg/day dose in a 70 kg human. The other group of rabbits remained on water for the remainder of the study. The cages were monitored daily in order to assure that each rabbit consumed the contents of his respective water bottle.
Oxo-sterol concentrations in the isolated LDL were also determined by the method set forth in Hughes, et. al., “Cytotoxicity of Oxidized LDL to Porcine Aortic Smooth Muscle Cells Is Associated with the Oxysterols 7-ketocholesterol and 7-hydrocholesterol,” 14(7) Arterioscler. Thromb. 1177-85 (1994). In general, the oxysterols were initially separated from the LDL via a Bligh and Dyer extraction followed by extraction using amino-propyl solid phase extraction columns available from Varian Instruments in order to further separate the lipids by polarity. The oxysterol-containing eluents were then dried therefrom under a nitrogen atmosphere and derivatized with N,O-bis(trimethylsilyl)trifluooroacetamide) (“BSTFA”) in a test tube. 10 μl of cholestane was added to the dried eluent at the time of derivatization as an internal standard. The derivatized samples were then analyzed using a gas chromatograph column having a flame ionization detector .The column program included initial temperature of 250° C. for 2 minutes, followed by temperature increases of 8° C./minute to 325° C., and then a final 8 minute temperature hold at 325° C. The amount of oxysterols in the LDL were then quantitated using known standards by ratio of the peak area of the oxysterol to cholestane. The concentrations of oxysterols are set forth below in Table B: […]

The nature of assay [2]: Total plasma cholesterol levels in cholesterol-fed rabbits. Format: in vivo, New Zealand white rabbits. From the text:
Twenty-three, six-week old male New Zealand white rabbits obtained from Myrtle's Rabbitry (Houston, Tex.) and weighing between about 1.8 kg and 2 kg were separated into two groups: Group 1 (experimental) having 12 rabbit/group and Group 2 (control) having 11 rabbits/group. At the beginning of the study, all rabbits were allowed water ad libitum and ate normal rabbit chow. After a two week acclimatization period, all of the rabbits were then placed on normal rabbit chow supplemented with 1% cholesterol (ICN Biochemicals, Inc., Costa Mesa, Calif.), in order to induce fatty streak formation in their blood vessel walls. Rabbits in Group 1 were switched from water to an acetaminophen solution for about a 40 mg/kgrabbit APAP dose. A 40 mg/kg dose of APAP in a 2.5 kg rabbit is equivalent to about a 2800 mg/day dose in a 70 kg human. The other group of rabbits remained on water for the remainder of the study. The cages were monitored daily in order to assure that each rabbit consumed the contents of his respective water bottle. After cannulating the femoral artery and advancing into the distal aorta region of each rabbit, blood was aspirated therefrom for isolation of LDL fraction. The blood of each rabbit was drawn into 1000 U of Heparin sodium in order to prevent coagulation, then the plasma was separated therefrom via centrifugation at 2000 rpm for ten minutes. […]

The test system of assay [3] is isolated LDL. The experiment in a line: Dienes analysis of copper-mediated oxidation of isolated LDL. Also noted: species or system New Zealand white rabbits. As to conditions: 0.1 mg/ml LDL from APAP-fed rabbits, 5 μM CuSO4, 37° C., 6 hour period, FIG. 1. The method, then: LDL Isolation: Plasma LDL was prepared by ultracentrifuation of a blood sample as disclosed in Havel, “The Distribution and Chemical Composition of Ultracentrifugally Separated Lpoproteins in Human Serum,” 34 JI. Clin. Inv. 1345 […], within a density cutoff of 1.020 g/ml to 1.055 g/ml and with the addition of 0.5 mg/ml ethylenediaminetetracetic acid ('EDTA') thereto. After adding a sample of this mixture to a semi-permable bag, the LDL was dialyzed therefrom against a vacuum-degassed 0.01 M Tris solution containing 0.15 M NaCl and 0.1 mg/ml EDTA under dark conditions and at 4° C. for 48 hours, followed by dialysis overnight using the same equipment but with a 0.01M phosphate buffer solution containing 0.15 M NaCl and no EDTA. The dialyzed LDL protein concentrations were then determined via the method set forth in Lowry, 'Protein Measurement with the Folin Phenol Reagent,' 226 J. Biol. Chem. 497-509 (1951). […] Analysis: The kinetics of these copper-mediated oxidation reactions were followed at 10 minute intervals for a total period of 6 hours by monitoring changes in absorbance at 234 nm of each mixture using a Model UV-2101PC spectrophotometer available from Shimadzu. […]

For assay [4], the system named is isolated LDL. The experiment in a line: TBARS analysis of copper-mediated oxidation of isolated LDL. On the set-up: species or system New Zealand white rabbits. As to conditions: 0.1 mg/ml LDL from APAP-fed rabbits, 5 μM CuSO4, 37° C., 4, 8 and 12 hours. Here is the method: LDL Isolation: Plasma LDL was prepared by ultracentrifuation of a blood sample as disclosed in Havel, “The Distribution and Chemical Composition of Ultracentrifugally Separated Lpoproteins in Human Serum,” 34 JI. Clin. Inv. 1345 […], within a density cutoff of 1.020 g/ml to 1.055 g/ml and with the addition of 0.5 mg/ml ethylenediaminetetracetic acid (‘EDTA’) thereto. After adding a sample of this mixture to a semi-permable bag, the LDL was dialyzed therefrom against a vacuum-degassed 0.01 M Tris solution containing 0.15 M NaCl and 0.1 mg/ml EDTA under dark conditions and at 4° C. for 48 hours, followed by dialysis overnight using the same equipment but with a 0.01M phosphate buffer solution containing 0.15 M NaCl and no EDTA. The dialyzed LDL protein concentrations were then determined via the method set forth in Lowry, ‘Protein Measurement with the Folin Phenol Reagent,’ 226 J. Biol. Chem. 497-509 (1951). […] The concentrations of thiobarbituric acid reactive substances (“TBARS”) in each mixture were then measured with the same spectrophotometer as described by Streinbrecher, et al., “Decrease in reactive amino groups during oxidation or endothelial cell modification of LDL,” Arteriosclerosis 1987;7:135-143.

The test system of assay [5] is low density lipoprotein (LDL). As to conditions: literature report; cited from earlier work.
The mark [6] stands for this setting: APAP-fed versus control rabbits.

For the compound `CC(=O)Nc1ccc(O)cc1` [APAP, N-(4-hydroxyphenyl) acetamide], in assay [1] (about 40 mg/kg APAP in drinking water, control 0.58 + 0.06), the “Average Fatty Streak/Total Aortic Area” value is on record as 0.32 + 0.05. Further, the “Aortic fatty streak areas versus control” value in assay [1] (about 40 mg/kg APAP, p<0.001) is listed as “significantly reduced aortic fatty streak areas”. Besides, the “Average 5b, 6b-epoxide concentration in LDL” value in the assay with oxysterols in LDL (APAP-fed rabbits, 1% cholesterol chow, 12 weeks, control 0.24 + 0.05) was 0.12 + 0.13 nmol/mg LDL. For the same compound, in the assay on oxysterols in LDL (APAP-fed rabbits, 1% cholesterol chow, 12 weeks, control 0.49 + 0.08), the “Average 5a, 6a-epoxide concentration in LDL” value is 0.11 + 0.05 nmol/mg LDL. In addition, the “Average 7bOH-cholesterol concentration in LDL” value with oxysterols in LDL (APAP-fed rabbits, 1% cholesterol chow, 12 weeks, control 1.01 + 0.26) is 0.32 + 0.07 nmol/mg LDL. Besides, in the assay on oxysterols in LDL (APAP-fed rabbits, 1% cholesterol chow, 12 weeks, control 2.31 + 0.62), the “Average 7aOH-cholesterol concentration in LDL” value is listed as 0.58 + 0.12 nmol/mg LDL. Also, the “Average 7keto-cholesterol concentration in LDL” value in the assay on oxysterols in LDL (APAP-fed rabbits, 1% cholesterol chow, 12 weeks, control 3.86 + 1.72) was 0.41 + 0.14 nmol/mg LDL. In addition, in the assay on oxysterols in LDL (setting [6]), the “Decrease in 7-alpha hydroxycholesterol values” amounted to 4 fold, the “Decrease in 7-beta hydroxycholesterol values” is 3 fold and the “Decrease in 7-keto cholesterol values” came to 9 fold. For the same compound, the “Average Circulating total Plasma Cholesterol Level” value in assay [2] (APAP-fed rabbits, 1% cholesterol chow, 12 weeks, control 1441 ± 87) is 1592 ± 43 mg/dL. In assay [2] (setting [6]), the “Amount of circulating cholesterol in the blood plasma versus control” value is “did not produce a significant difference”. Moreover, the “Absorbance at 234 nm of isolated LDL (dienes) versus control” value in the assay on isolated LDL [3] is “lower absorbance values”. Moreover, the “TBARS formed during the LDL oxidation versus control” value in the assay on isolated LDL [4] was “comparable”. Moreover, the “LDL lipid oxidation in vitro” value in assay [5] is recorded as “prevent low density lipoprotein (“LDL”) lipid oxidation in vitro”.
